For series [1], the system named is Pseudomonas aeruginosa. Put plainly: Antimicrobial activity against Pseudomonas aeruginosa PAO1 CECT 4122 ATCC 15692 incubated for 18 hrs by microplate reader based assay. Type of series: functional. The conditions noted are these: for MIC: read-out: MIC100.
The test system of series [2] is Staphylococcus aureus. Description: Antimicrobial activity against Staphylococcus aureus CECT 86 ATCC 12600 incubated for 18 hrs by microplate reader based assay. Type of series: functional. The conditions noted are these: CECT 86 ATCC 12600, 18 h; for MIC: read-out: MIC100.
A short description of series [3]: Selectivity index, ratio of CC50 for macrophages (unknown origin) to MIC50 for Staphylococcus aureus CECT 86 ATCC 12600. Type of series: functional.
The nature of series [4]: Toxicity against macrophages (unknown origin) assessed as reduction in cell viability after 24 to 48 hrs by MTT assay. Type of series: cell-based, Macrophage. Background: Tetrazolium assays rely on reduction of a dye to a coloured formazan, in cell work by metabolically active cells.
The nature of series [5]: Selectivity index, ratio of CC50 for macrophages (unknown origin) to MIC50 for methicillin-resistant Staphylococcus aureus. Type of series: functional.
Series [6] can be described thus: Antimicrobial activity against Streptococcus mutans CECT 479 ATCC 25175 incubated for 18 hrs by microplate reader based assay. Type of series: functional, Streptococcus mutans ATCC 25175. The note with it: CECT 479, 18 h.
Series [7] deals with Staphylococcus epidermidis. Description: Antimicrobial activity against Staphylococcus epidermidis CECT 231 ATCC 1798 incubated for 18 hrs by microplate reader based assay. Type of series: functional. The conditions noted are these: CECT 231 ATCC 1798, 18 h.
The subject of series [8] is Staphylococcus aureus. Description: Antimicrobial activity against methicillin-resistant Staphylococcus aureus incubated for 18 hrs by microplate reader based assay. Type of series: functional.
A short description of series [9]: Selectivity index, ratio of CC50 for macrophages (unknown origin) to MIC50 for Staphylococcus epidermidis CECT 231 ATCC 1798. Type of series: functional.
The nature of series [10]: Antimicrobial activity against Enterococcus faecalis CECT 481 ATCC 19433 incubated for 18 hrs by microplate reader based assay. Type of series: functional, Enterococcus faecalis ATCC 19433. The note with it: CECT 481, 18 h.
The test system of series [11] is Burkholderia cenocepacia. Description: Antimicrobial activity against Burkholderia cenocepacia J2315 incubated for 18 hrs by microplate reader based assay. Type of series: functional. The note with it: J2315, 18 h.
A short description of series [12]: Selectivity index, ratio of CC50 for macrophages (unknown origin) to MIC50 for Streptococcus mutans CECT 479 ATCC 25175. Type of series: functional.
Series [13] relates to Staphylococcus aureus. Description: Bacteriolytic activity against Staphylococcus aureus CECT 86 ATCC 12600 at 36 uM incubated for 3 hrs by live/dead assay. Type of series: functional, organism-based.
Series [14] concerns Staphylococcus aureus. Put plainly: Anti-biofilm activity against Staphylococcus aureus CECT 86 ATCC 12600 incubated for 24 to 48 hrs. Type of series: functional.
Series [15] is described as follows: Selectivity index, ratio of CC50 for macrophages (unknown origin) to MIC50 for Enterococcus faecalis CECT 481 ATCC 19433. Type of series: functional.
The mark [16] stands for this setting: PAO1 CECT 4122 ATCC 15692, 18 h.

Structures are written as SMILES. In brackets after ≈: the same amount, converted by molar mass. Activity calls are given as the source filed them. The rule behind the calls is not given here.

The MIC50 is an inhibitory concentration at the 50% level, which refers to growth in some studies and to a panel of isolates in others. What is called CC50 is the concentration giving 50% cytotoxicity.

For the molecule `CC12CC3CC(NCC(N)=O)(CC(C1)c1ccccc13)C2`, the MIC50 entry in [1] is “inactive”. The molecule further returned an MIC50 in [2] above 1000 µM.

With `O=C(O)c1cn(C2CC2)c2cc(N3CCNCC3)c(F)cc2c1=O` [CIPROFLOXACIN], the MIC50 in series [1] (setting [16]) stood at 1.2 µM (≈ 0.398 µg/mL); in series [2], 0.3 µM (≈ 0.0994 µg/mL).

Regarding `CN(C)C12CC3CC(C1)c1ccccc1C(C3)C2`, in series [1], the MIC50 result was “inactive”. Also, in [2], the MIC50 amounted to 304 µM (≈ 73.4 µg/mL) and the MIC was below 625 µM. Moreover, the “Selectivity Index” value in series [3] was 0.15. The half-maximal cytotoxic concentration (CC50) in series [4] worked out at 44.5 µM.

In the case of `c1ccc(CNC23CC4CC(CC(C2)c2ccccc24)O3)cc1`, the MIC50 result in [1] was “inactive”. The MIC50 in series [2] was above 1000 µM.

On to `NC12CC3CC(F)(CC(C1)c1ccccc13)C2`, for which the MIC50 result in series [1] was “inactive”. In addition, in [2], the MIC50 was 95 µM (≈ 22 µg/mL) and the MIC was below 312 µM.

For the molecule `CN(Cc1ccccc1)C12CC3CC(CC(C1)c1ccccc13)O2`, the MIC50 result in [1] was “inactive”. The molecule further returned an MIC50 in series [2] above 1000 µM.

Consider `CN(C)C12CC3CC(F)(CC(C1)c1cc([N+](=O)[O-])ccc13)C2` (stereo not given), for which, in [2], the MIC50 was below 425 µM and the MIC was below 1250 µM.

Regarding `CC(=O)NC12CC3CC(C)(CC(C1)c1ccccc13)O2`, the MIC50 entry in series [1] is “inactive”. Also, in [2], the MIC50 is above 1000 µM.

On to `NNC12CC3CC(CC(C1)c1ccccc13)O2`, for which the MIC50 entry in series [1] was “inactive”. Further, the MIC50 in [2] was above 1000 µM.

Consider `Nc1ccc2c(c1)C1CC3(N)CC2CC(F)(C1)C3` (stereo not given), for which, in series [2], the MIC50 is below 375 µM and the MIC is below 1250 µM.

With `CN(C)C12CC3CC(C)(CC(C1)c1ccccc13)C2`, the MIC50 result in [1] was “inactive”. In addition, the MIC50 in series [2] is above 1000 µM.

In the case of `CC12CC3CC(N)(CC(C1)c1ccccc13)C2`, in series [1], the MIC50 result is “inactive”. This molecule also returned an MIC50 in [2] above 1000 µM.

On to `C#CCNC12CC3CC(CC(C1)c1ccccc13)O2`, for which the MIC50 entry in [1] was “inactive”. The MIC50 in series [2] was above 1000 µM.

As for `CN(C)C12CC3CC(C)(CC(C1)c1ccccc13)O2`, the MIC50 entry in [1] was “inactive”. This molecule also displayed an MIC50 in series [2] above 1000 µM.

In the case of `Cl.NC12CC3CC(Cl)(CC(C1)c1ccccc13)C2`, the MIC50 in [1] (setting [16]) was found to be 1250 µM; in series [6], 60 µM; in series [2], 36 µM; in series [7], 75 µM; in series [8], 75 µM; in series [10], 60 µM. In series [11], this molecule had an MIC50 below 125 µM. The MIC in [1] (setting [16]) was above 1250 µM; in series [6] (read-out: MIC100) it was above 250 µM; in series [2], below 156 µM; in series [7] (read-out: MIC100), below 250 µM; in series [8] (read-out: MIC100), below 180 µM; in series [10] (read-out: MIC100) it was above 250 µM. Further, the MIC in series [11] (read-out: MIC100) was above 250 µM. Also, the “Selectivity Index” value in [5] was 4.84; in series [9], 4.84; in [12], 6.05; in series [3], 10.1; in series [15], 6.05. Moreover, in series [13], the outcome was Active. Also, the half-maximal cytotoxic concentration (CC50) in [4] came to 363 µM. For the same molecule, the MBIC50 in series [14] turned out to be 45 µM.

With `c1ccc(CN(Cc2ccccc2)C23CC4CC(CC(C2)c2ccccc24)O3)cc1`, in [1], the MIC50 entry is “inactive”. The molecule also yielded an MIC50 in series [2] above 1000 µM.

With `CN(C)C12CC3CC(Cl)(CC(C1)c1ccccc13)C2`, in series [2], the MIC50 was below 625 µM and the MIC is below 1250 µM.

With `CN(C)C12CC3CC(O)(CC(C1)c1ccccc13)C2`, in series [1] (setting [16]), the MIC50 is below 2500 µM and the MIC stood at 5000 µM (≈ 1290 µg/mL). Besides, in series [2], the MIC50 was above 1000 µM and the MIC is above 10000 µM. In addition, the CC50 in series [4] was above 100 µM.

Regarding `CN(Cc1ccccc1)C12CC3CC(C)(CC(C1)c1ccccc13)C2`, in series [1], the MIC50 result is “inactive”. This molecule also gave an MIC50 in series [2] above 1000 µM.

As to `NC12CC3CC(CC(C1)c1ccccc13)O2`, in [1], the MIC50 entry was “inactive”. In series [2], this molecule displayed an MIC50 above 1000 µM.

`NC12CC3CC(F)(CC(C1)c1cc([N+](=O)[O-])ccc13)C2` (stereo not given): in [2], the MIC50 was determined as 125 µM (≈ 34.5 µg/mL) and the MIC was below 312 µM.

On to `CN(C)C12CC3CC(F)(CC(C1)c1ccccc13)C2`, for which the MIC50 entry in series [1] is “inactive”. The MIC50 in series [2] is above 1000 µM.

Regarding `CCN(CC)C12CC3CC(C)(CC(C1)c1ccccc13)O2`, in series [1], the MIC50 entry was “inactive”. This molecule also registered an MIC50 in [2] above 1000 µM.

Regarding `CC12CC3CC(NCc4ccccc4)(CC(C1)c1ccccc13)C2`, the MIC50 result in series [1] is “inactive”. The same molecule displayed an MIC50 in series [2] above 1000 µM.

For `NC12CC3CC(C1)c1ccccc1C(C3)C2`, the MIC50 entry in series [1] was “inactive”. Further, in [2], the MIC50 is 17 µM (≈ 3.63 µg/mL) and the MIC was above 39 µM. For the same molecule, the “Selectivity Index” value in [3] was determined as 3.4. The half-maximal cytotoxic concentration (CC50) in series [4] was 58.5 µM.

These data come from ChEMBL document CHEMBL3352083, “Antibacterial activity of novel benzopolycyclic amines” (Bioorg Med Chem, 2015).
